Experimental data published in PMC6835155, “Lessons from LIMK1 enzymology and their impact on inhibitor design” (Biochemical Journal, 2019).
Where a name gives a salt, the structure may show the parent alone. Read-outs that look alike come from different tables or passages of the source.

How the values were obtained:
LIMK1KD = molecular target: T1, LIMK1KD (Homo sapiens, UniProt P53667); experiment: Differential (dynamic) scanning fluorimetry (DSF) assay, LIMK1KD; format: binding
T1 construct: His6 (N, cleaved yes); made in house; host or cells: baculovirus; Sf9 for virus, TriEx insect cells for expression

LIMK2KD = molecular target: T2, LIMK2KD (Homo sapiens, UniProt P53671); experiment: Differential (dynamic) scanning fluorimetry (DSF) assay, LIMK2KD; format: binding
T2 construct: The cDNA coding for LIMK2 residues 330 to 632 was PCR amplified; His6 (N, cleaved yes); made in house; host or cells: baculovirus; Sf9 for virus, TriEx insect cells for expression

[1] = 2 µM LIMK1KD, compound 10 µM, single shot, read-out: TM Shift LIMK1 (K)
[2] = read-out: TM Shift LIMK2 (K), LIMK2KD, compound 10 µM, single shot
[3] = LIMK2KD, compound 10 µM, single shot, read-out: TM Shift LIMK2 (K)
[4] = 2 µM LIMK1KD, compound 10 µM, single shot
[5] = LIMK2KD, compound 10 µM, single shot
[6] = LIMK2KD, compound 10 µM, single shot, 10 µM

T1 sequence (P53667 330-637): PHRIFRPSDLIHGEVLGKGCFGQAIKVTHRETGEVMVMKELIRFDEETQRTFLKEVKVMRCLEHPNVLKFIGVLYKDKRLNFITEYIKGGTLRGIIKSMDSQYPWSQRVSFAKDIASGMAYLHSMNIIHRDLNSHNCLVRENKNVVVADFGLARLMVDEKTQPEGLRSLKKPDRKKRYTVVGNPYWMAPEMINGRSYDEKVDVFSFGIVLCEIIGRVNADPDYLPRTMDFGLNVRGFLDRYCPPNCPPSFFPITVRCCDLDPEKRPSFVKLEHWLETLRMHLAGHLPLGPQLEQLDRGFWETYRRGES
T2 sequence (P53671 330-632): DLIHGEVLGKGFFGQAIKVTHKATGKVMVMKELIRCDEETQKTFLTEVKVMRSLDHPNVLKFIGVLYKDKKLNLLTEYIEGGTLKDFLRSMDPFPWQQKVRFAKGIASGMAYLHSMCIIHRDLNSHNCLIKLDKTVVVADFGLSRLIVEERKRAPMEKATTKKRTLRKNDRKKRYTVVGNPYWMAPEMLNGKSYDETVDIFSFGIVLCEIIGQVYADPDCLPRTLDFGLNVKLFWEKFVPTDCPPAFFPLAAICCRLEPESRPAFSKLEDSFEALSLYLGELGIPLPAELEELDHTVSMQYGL

SMILES	ΔTm at 10 µM (LIMK1KD; [1]) [°C]	ΔTm at 10 µM (LIMK2KD; [3]) [°C]	TM Shift LIMK1 (K) (LIMK1KD; [4])	TM Shift LIMK2 (K) (LIMK2KD; [5])	also measured
C[C@]12O[C@H](C[C@]1(O)CO)n1c3ccccc3c3c4c(c5c6ccccc6n2c5c31)CNC4=O [Lestaurtinib]	5				ΔTm at 10 µM (LIMK2KD; [2]): 2 °C
CC1=C(C(=O)Nc2cc3cn[nH]c3cc2F)C(c2ccc(C(F)(F)F)cc2)CC(=O)N1 (centres unmarked) [GSK429286A]	0.5	1.4			
CO[C@@H]1[C@H](N(C)C(=O)c2ccccc2)C[C@H]2O[C@]1(C)n1c3ccccc3c3c4c(c5c6ccccc6n2c5c31)C(=O)NC4 [Midostaurin]	0.1	0			
CCN1CCN(Cc2ccc(-c3cc4c(N[C@H](C)c5ccccc5)ncnc4[nH]3)cc2)CC1 [AEE788 (NVP-AEE788)]	4.7	4.5			
Cc1cc(C(C)Nc2ccccc2)c2nc(N3CCOCC3)cc(=O)n2c1 (centres unmarked) [TGX-221]			0.1	0.0	
COc1cc2ncnc(Oc3cccc(NC(=O)Nc4cc(C(C)(C)C(F)(F)F)on4)c3)c2cc1OC [CEP-32496]	-0.2	-0.1			
C1=C/COCc2cc(ccc2OCCN2CCCC2)Nc2nccc(n2)-c2cccc(c2)COC/1 [Pacritinib (SB1518), Pacritinib]	1.6	1.5			
C=CC(=O)Nc1cc2c(Nc3ccc(F)c(Cl)c3)ncnc2cc1OCCCN1CCOCC1 [Canertinib (CI-1033), Canertinib]	0.9	0.5			
CCn1c(C(=O)N(C2CC2)C2CC2)cc2c3c(ncn3C)c(Nc3cc(C)n(C)n3)nc21 [BMS-911543]	1.8	0.3			
[H]/N=C(/N)N/C(=N/[H])NCCc1ccccc1 [Phenformin HCl]	-0.3	0.6			
CO[C@@H](C(=O)N1Cc2n[nH]c(NC(=O)c3ccc(N4CCN(C)CC4)cc3)c2C1)c1ccccc1 [Danusertib (PHA-739358), Danusertib]	5	1			
CC1(COc2ccc3c(c2)ncn3-c2ccc3cccc(N4CCC(N)CC4)c3n2)COC1 [Crenolanib (CP-868596), Crenolanib]	1	0.5			
CC[C@H](Nc1ncnc2[nH]cnc12)c1nc2cccc(F)c2c(=O)n1-c1ccccc1 [Idelalisib]			0.5		TM Shift LIMK1 (K) (LIMK1KD; 2 µM LIMK1KD, compound 10 µM, single shot, listed as CAL-101 (Idelalisib, GS-1101)): -0.1 K; TM Shift LIMK2 (K) (LIMK2KD; [6]): -0.8 K; TM Shift LIMK2 (K) (LIMK2KD; LIMK2KD, compound 10 µM, single shot, listed as CAL-101 (Idelalisib, GS-1101), 10 µM): 1.8 K
OCCn1cc(-c2cnc3nnn(Cc4ccc5ncccc5c4)c3n2)cn1 [PF-04217903]			0.3	-0.1	
COc1cc2c(N3CCN(C(=O)Nc4ccc(OC(C)C)cc4)CC3)ncnc2cc1OCCCN1CCCCC1 [Tandutinib (MLN518), Tandutinib]	0.8	0			
O=C(NCc1ccccc1)c1csc(Nc2ccncn2)n1 [Thiazovivin]			1.1	1.0	
COc1ccc(COc2cc3oc(=O)c4cc(C(C)O)ccc4c3cc2OC)cc1 (centres unmarked) [Palomid 529 (P529)]			0.0	10.6	
COc1cc2c(Oc3ccc4[nH]c(C)cc4c3F)ncnc2cc1OCCCN1CCCC1 [Cediranib (AZD2171), Cediranib]	-0.2	0.5			
Cc1ccc(NC(=O)c2ccc(CN3CCN(C)CC3)cc2)cc1Nc1nc(-c2cccnc2)cs1 [Masitinib (AB1010), Masitinib]	0.4	0			
Cc1ccccc1CN1C(=O)C2=C(CCN(Cc3ccccc3)C2)N2CCN=C12 [TIC10]			0.5	-1.2	
C=CCN(/C=C1/C(=O)O[C@H](COC)[C@@]2(C)C1=C(O)C(=O)C1=C2[C@H](OC(C)=O)C[C@]2(C)C(=O)CC[C@@H]12)CC=C [Sonolisib]	0.7	0.6			
O=C(Nc1cc(C(F)(F)F)cc(C(F)(F)F)c1)c1cc(Cl)ccc1O [IMD 0354]	-0.6	1.4			
CN(C)C[C@@H]1CCn2cc(c3ccccc32)C2=C(C(=O)NC2=O)c2cn(c3ccccc23)CCO1 [Ruboxistaurin]	1	0.4			
CN1CCN(C2CCN(C(=O)Nc3cc(Oc4ccc(NC(=O)C5(C(=O)Nc6ccc(F)cc6)CC5)c(F)c4)ccn3)CC2)CC1 [Golvatinib (E7050), Golvatinib]	3	1			
C[C@H](NC(=O)/C(C#N)=C/c1cccc(Br)n1)c1ccccc1 [WP1066]	-0.3	0.4			
Oc1ccc(-c2nc(-c3ccc(F)cc3)c(-c3ccncc3)[nH]2)cc1 [SB202190 (FHPI)]			0.7	0.2	
Cc1c(CN2CCN(C(=O)[C@H](C)O)CC2)sc2c(N3CCOCC3)nc(-c3cnc(N)nc3)nc12 [Apitolisib]	1.6	0.6			

SMILES	ΔTm at 10 µM (LIMK1KD; [1]) [°C]	ΔTm at 10 µM (LIMK2KD; [3]) [°C]	TM Shift LIMK1 (K) (LIMK1KD; [4])	TM Shift LIMK2 (K) (LIMK2KD; [5])	also measured
CCCCCCCCc1ccc(CCC(N)(CO)CO)cc1 [Fingolimod (FTY720) HCl, Fingolimod]					ΔTm at 10 µM (LIMK1KD; read-out: TM Shift LIMK1 (K), 2 µM LIMK1KD, compound 10 µM, single shot): -0.7 °C; ΔTm at 10 µM (LIMK2KD; [2]): 1.1 °C
O=C1NC(=O)/C(=C/c2ccc3nccc(-c4ccncc4)c3c2)S1 [GSK1059615]	1.2	2.6			
C=CC(=O)Nc1ccc2ncnc(Nc3ccc(OCc4cccc(F)c4)c(Cl)c3)c2c1 [AST-1306]	0.4	0.1			
COc1cc2ncc(-c3ccccc3)nc2cc1OC [Tyrphostin AG 1296]			0.0	-1.3	
O=P(O)(O)C(O)(Cn1ccnc1)P(=O)(O)O [Zoledronic Acid]	-0.7	1.3			
Cc1ccc([N+](=O)[O-])cc1S(=O)(=O)N(C)/N=C/c1cnc2ccc(Br)cn12 [PIK-75]			3.3	2.4	
CN1CCN(c2ccc3nc(-c4c(N)c5c(F)cccc5[nH]c4=O)[nH]c3c2)CC1 [Dovitinib (TKI-258) Dilactic Acid, Dovitinib]	2.2	3.8			
Cc1[nH]nc2ccc(-c3cncc(OC[C@@H](N)Cc4ccccc4)c3)cc12 [A-674563]			0.8	0.2	
C=CCn1c(=O)c2cnc(Nc3ccc(N4CCN(C)CC4)cc3)nc2n1-c1cccc(C(C)(C)O)n1 [MK-1775]	1.2	0			
COc1cc2ncnc(Nc3ccc(O)c(Br)c3)c2cc1OC [WHI-P154]			1.5	-0.2	
Cc1cnc(Nc2ccc(N3CCN(C)CC3)cc2)nc1Nc1cccc(S(=O)(=O)NC(C)(C)C)c1 [TG101209]			2.4	3.1	
CCN1CCN(c2ccc(Nc3cc(N(C)C(=O)Nc4c(Cl)c(OC)cc(OC)c4Cl)ncn3)cc2)CC1 [NVP-BGJ398]			0.0		TM Shift LIMK1 (K) (LIMK1KD; 2 µM LIMK1KD, compound 10 µM, single shot, listed as BGJ398 (NVP-BGJ398)): 0.7 K; TM Shift LIMK2 (K) (LIMK2KD; [6]): -0.5 K; TM Shift LIMK2 (K) (LIMK2KD; LIMK2KD, compound 10 µM, single shot, listed as BGJ398 (NVP-BGJ398), 10 µM): 0.5 K
CN(C)Cc1cccc(N/C(=C2\C(=O)Nc3cc(C(N)=O)ccc32)c2ccccc2)c1 [BIX 02188]	1.7	-0.1			
O=c1cc(-c2cccc3c2Sc2ccccc2S3)oc(N2CCOCC2)c1 [KU-55933 (ATM Kinase Inhibitor)]	-0.2	-0.1			
CN[C@@H]1C[C@H]2O[C@@](C)([C@@H]1OC)n1c3ccccc3c3c4c(c5c6ccccc6n2c5c31)C(=O)N[C@H]4O [UCN-01]			1.2	0.7	
COC[C@H]1OC(=O)c2coc3c2[C@@]1(C)C1=C(C3=O)[C@@H]2CCC(=O)[C@@]2(C)C[C@H]1OC(C)=O [Wortmannin]	0.2	0.1			
Cc1ccc(C(=O)Nc2cccc(C(F)(F)F)c2)cc1Nc1nc(-c2cccnc2)nc2c1cnn2C [NVP-BHG712]			-0.2	1.6	
CS(=O)(=O)N1CCN(Cc2cc3nc(-c4cccc5[nH]ncc45)nc(N4CCOCC4)c3s2)CC1 [GDC-0941]			-0.3		TM Shift LIMK2 (K) (LIMK2KD; [6]): -0.4 K
COc1cccc(-c2cc(=O)c3ccccc3o2)c1N [PD98059]			-0.8	-0.3	
CCc1cc2c(cc1N1CCC(N3CCOCC3)CC1)C(C)(C)c1[nH]c3cc(C#N)ccc3c1C2=O [Alectinib (CH5424802), Alectinib]	-1.6	1.1			
CNC(=O)c1cc(Oc2ccc(NC(=O)Nc3ccc(Cl)c(C(F)(F)F)c3)cc2)ccn1 [Sorafenib Tosylate]			1.7		ΔTm at 10 µM (LIMK2KD; [2]): 1.5 °C
Cc1ncc(-c2ccnc(Nc3ccc(S(C)(=O)=O)cc3)n2)n1C(C)C [AZD5438]	4.4	1.7			
O=C1NC(=O)/C(=C/c2cccc(C(F)(F)F)c2)S1 [SMI-4a]			-0.2	-0.4	
Nc1nc(N)c2nc(-c3cccc(O)c3)cnc2n1 [TG100713]			1.4	0.7	
O=C(Nc1ccc(-c2ccnc(Nc3ccc(N4CCOCC4)cc3)n2)cc1)C1CCCN1 (centres unmarked) [XL019]	4	1.6			
Cc1cc(Nc2cc(N3CCN(C)CC3)nc(Sc3ccc(NC(=O)C4CC4)cc3)n2)[nH]n1 [VX-680 (Tozasertib, MK-0457), Tozasertib]	3.4	0			
